Data on three compounds can be found in paper PMC7927014, “Novel Small Molecule Hsp90/Cdc37 Interface Inhibitors Indirectly Target K-Ras-Signaling” (Cancers, 2021).

For orientation: IC50 means the concentration at which inhibition is half-maximal.

In one assay the test system is K-RasG12V nanoclustering. The assay can be described thus: K-RasG12V nanoclustering-FRET (FLIM-FRET) in HEK cells. Type of assay: cell-based. Particulars: 24 h, conglobatin A 2 μM, salinomycin 1.3 μM, 17-AAG 2 μM, CAY10585 10 μM, hit compounds indicated concentrations. The method, then:
In total, 80,000 HEK cells were seeded in 12-well plates containing sterilized 16-mm coverslips and 1 mL medium. The next day, the cells were transfected using jetPRIME or FuGENE HD transfection reagent. For the donor fluorophore-only samples, the cells were transfected with 500 ng mGFP-tagged RasG12V plasmid. For the nanoclustering-FRET pair samples, the cells were transfected with both the donor and acceptor constructs, i.e., pmGFP- and pmCherry- RasG12V at a plasmid ratio of 1:3, respectively, and a total of 800 ng plasmids. The next day, the cells were treated with either 0.1% DMSO vehicle control or the indicated concentrations of compounds diluted in DMEM or RPMI medium for 24 h. For the gene silencing studies, the cells were transfected with the indicated amounts of siRNAs, together with the FRET pair constructs. The plasmids and siRNA were diluted in the same jetPRIME transfection buffer, followed by the addition of jetPRIME. […] The lifetime of the mGFP donor fluorophore was measured using a fluorescence microscope (Zeiss AXIO Observer D1) equipped with a fluorescence lifetime imaging attachment (Lambert Instruments), as described previously in detail. The apparent FRET efficiency (Eapp) was calculated as Eapp = (1 − τDA/τD) × 100%, with the measured fluorescence lifetimes τDA of the FRET sample and the τD of the donor-only sample.

The subject of the next assay is H-RasG12V nanoclustering. The experiment in a line: H-RasG12V nanoclustering-FRET (FLIM-FRET) in HEK cells. Type of assay: cell-based. As to conditions: 24 h, conglobatin A 2 μM, salinomycin 1.3 μM, CAY10585 10 μM. The method, then: In total, 80,000 HEK cells were seeded in 12-well plates containing sterilized 16-mm coverslips and 1 mL medium. The next day, the cells were transfected using jetPRIME or FuGENE HD transfection reagent. For the donor fluorophore-only samples, the cells were transfected with 500 ng mGFP-tagged RasG12V plasmid. For the nanoclustering-FRET pair samples, the cells were transfected with both the donor and acceptor constructs, i.e., pmGFP- and pmCherry- RasG12V at a plasmid ratio of 1:3, respectively, and a total of 800 ng plasmids. The next day, the cells were treated with either 0.1% DMSO vehicle control or the indicated concentrations of compounds diluted in DMEM or RPMI medium for 24 h. For the gene silencing studies, the cells were transfected with the indicated amounts of siRNAs, together with the FRET pair constructs. The plasmids and siRNA were diluted in the same jetPRIME transfection buffer, followed by the addition of jetPRIME. After 48 h of transfection, the cells were fixed in 4% paraformaldehyde for 10 to 15 min, before being mounted onto slides with Mowiol 4–88 (cat. no. 81381, Sigma-Aldrich). The lifetime of the mGFP donor fluorophore was measured using a fluorescence microscope (Zeiss AXIO Observer D1) equipped with a fluorescence lifetime imaging attachment (Lambert Instruments), as described previously in detail. The apparent FRET efficiency (Eapp) was calculated as Eapp = (1 − τDA/τD) × 100%, with the measured fluorescence lifetimes τDA of the FRET sample and the τD of the donor-only sample.

Another assay concerns Gal3. The assay can be described thus: Western blotting of galectin-3. The format is cell-based. Particulars: Western blot, 24 h; K-RasG12V-transfected HEK and MDA-MB-231 cells. The protocol: The cells were trypsinized, washed with PBS, and lysed in RIPA buffer (cat no. 89900, ThermoFisher Scientific) containing protease and phosphatase inhibitors (cat. no. A32959, ThermoFisher Scientific) and 1 mM phenylmethylsulfonyl fluoride (PMSF). The cells in the RIPA buffer were placed on ice for 20 min, and were then sonicated in ice cold water for 5 min. The lysates were centrifuged at 4 °C, and their protein was quantified using a BCA kit (cat. no. 23225, ThermoFisher Scientific). Equal amounts of protein were separated by 10% SDS-PAGE, and were then transferred onto a nitrocellulose membrane (cat. no. NBA 083C001EA, Protran) using a wet transfer system (Bio-Rad) or semidry Transferblot Turbo Transfer System (Bio-Rad). After the transfer, the membranes were blocked for 30 min in 5% skimmed milk dissolved in 1× TBST, and then incubated with 1:2000 primary antibodies in 5% BSA in TBST at 4 °C overnight. […]
The next day, the membranes were washed three times in TBST for 10 min, and then incubated with secondary antibodies (1:5000) diluted in 5% skimmed milk in TBST for 1 h at RT. […] The protein bands were detected with a ChemiDoc MP instrument (Bio-Rad) after treatment with an ECL reagent (cat. no. 170-5061, BioRad). […]
On the technique in general: In western blotting, separated proteins are transferred to a membrane and probed.

Assay [1] concerns the target T1, Hsp90/Cdc37 (Homo sapiens, UniProt P07900).
T1 construct: The Hsp90/Cdc37 split Renilla luciferase assay using the full length Hsp90 for the compound screening was described previously; expressed in transfected cells; host or cells: HEK293 EBNA cells, cleared lysates
The assay can be described thus: Hsp90/Cdc37 split Renilla luciferase assay, full length Hsp90 (cell lysate; IC50 and 20 μM validation). Type of assay: biochemical. As to conditions: MolPort Screening-3, tested concentration of drugs 20 μM. The protocol:
(§1) In the second in silico screening of the FIMM database, we employed the four identified chemical scaffolds (Figure S2B) for the visual inspection of the FIMM compound library. […] All of the purchased compounds were validated in vitro at 20 μM using the split Renilla luciferase assay.
(§2) The Hsp90/Cdc37 split Renilla luciferase assay using the full length Hsp90 for the compound screening was described previously. […] After 48 h, the cells were trypsinized and washed with PBS. The harvested cells were lysed in 1 mL of the 1x lysis buffer provided in the Renilla Luciferase Reporter Assay System Kit from Promega (cat. E2820), and were incubated on ice for 10 min. The cell lysates were then cleared by centrifugation at 13,000× g for 1 min. […] After this, the screening/test compounds or DMSO—as indicated—were added to each well. In total, 5 µL NRL-Hsp90- or NRL-N-Hsp90-lysate was added to each well, one row at a time. Subsequently, the plate was incubated for 5 min at room temperature (RT). […] Just before the reading, 20 µL assay buffer containing 2× Renilla luciferase substrate (coelenterazine) was added. For the FIMM screening, sample wells were read on a PHERAstar plate reader (BMG LABTECH) at a gain level of 4000, after 10 s shaking, using a hypomorph of NRL-Hsp90. For the subsequent validations of the compounds, sample wells with the above-described assay constructs were read using a synergy H1 Hybrid Multi-Mode reader (BioTek) in the luminescence detection mode, as described previously in detail.

Assay [2] concerns Hsp90/Cdc37. The assay can be described thus: FIMM screening in split Renilla luciferase assay with hypomorphic NRL-Hsp90 construct, 20 μM. Type of assay: biochemical. The protocol: as §1, §2
The next assay concerns the target T2, Hsp90α (N-terminal) (Homo sapiens, UniProt P07900).
T2 construct: purchased BPS Bioscience 50298
The assay can be described thus: Hsp90 N-terminal ATP-binding site competition assay (FITC-geldanamycin fluorescence polarization). The method, then:
The reaction was initiated by adding 35 ng/μL purified recombinant Hsp90α, and was incubated at RT with slow shaking for 2 h. All of the reactions were performed in a black, low binding NUNC microtiter plate, included in the kit, and the total reaction volume was 50 μL. The enzyme control was measured without the test compound, and the enzyme background control was measured without the test compound or Hsp90α. […] All of the controls and the blank contained 10% DMSO, as did all of the samples of the test compounds. All of the samples were analyzed as duplicates. […] The blank value was subtracted from all of the other values, and the fluorescence polarization was determined as:(1) mP = ((III − I⊥)/(III+ I⊥)) × 1000 where III is the intensity of the parallel, and I┴ the intensity of the perpendicular polarized light.
On the technique in general: In fluorescence polarisation assays a small probe gives low polarisation when free and higher when bound to something large.

The test system of a further assay is MDA-MB-231 cells. The experiment in a line: 2D cell proliferation (alamarBlue). Type of assay: cell-based. As to conditions: Homo sapiens, MDA-MB-231, 72 h. The protocol: Per well, 500–700 cells were seeded in 96-well flat bottom culture plates in 100 µL. After 24 h, the cells were treated with 0.1% DMSO vehicle control or test compounds diluted in a medium using a 1:2 dilution-series, starting at 100 µM. The plates were further incubated for 72 h. The cell viability was measured after the addition of 10% alamarBlue reagent per well (cat. no. DAL1100, Thermo Fisher Scientific). The fluorescence intensity (excitation 560 nm and emission 590 nm) was measured after 4 h by the use of a H1 Hybrid Multi-Mode reader.

The next assay deals with Hsp90, Hsp70. The experiment in a line: Western blotting of Hsp90 and Hsp70 (heat shock response). Type of assay: cell-based. Particulars: Western blot, 24 h; four cancer cell lines; 17-AAG 2 μM. The method, then: (§3) The cells in the RIPA buffer were placed on ice for 20 min, and were then sonicated in ice cold water for 5 min. […] Equal amounts of protein were separated by 10% SDS-PAGE, and were then transferred onto a nitrocellulose membrane (cat. no. NBA 083C001EA, Protran) using a wet transfer system (Bio-Rad) or semidry Transferblot Turbo Transfer System (Bio-Rad). After the transfer, the membranes were blocked for 30 min in 5% skimmed milk dissolved in 1× TBST, and then incubated with 1:2000 primary antibodies in 5% BSA in TBST at 4 °C overnight.
(§4) The next day, the membranes were washed three times in TBST for 10 min, and then incubated with secondary antibodies (1:5000) diluted in 5% skimmed milk in TBST for 1 h at RT. […] All of the antigens and molecular weights in kDa are labelled next to the blots on the figures. Uncropped Western blot data are attached as Figure S6.

The next assay deals with HIF-1α. The assay can be described thus: Western blotting of HIF-1α in nuclear extracts. Type of assay: cell-based. Particulars: Western blot of nuclear extracts, 24 h; K-RasG12V-transfected HEK and MDA-MB-231 cells; conglobatin A 5 or 10 μM, 17-AAG 2 μM. The method, then: as §3, §4

With `CC[C@@H](C(=O)[C@@H](C)[C@@H](O)[C@H](C)[C@@H]1O[C@@H]([C@@H](CC)C(=O)O)CC[C@@H]1C)[C@H]1O[C@]2(C=C[C@@H](O)[C@]3(CC[C@@](C)([C@H]4CC[C@](O)(CC)[C@H](C)O4)O3)O2)[C@H](C)C[C@@H]1C` [salinomycin], in the assay on K-RasG12V nanoclustering, the “K-RasG12V nanoclustering-FRET” value is “blocks K-RasG12V-”. In the assay with H-RasG12V nanoclustering, the “H-RasG12V nanoclustering-FRET” value is “not H-RasG12V-nanoclustering”.

In the case of `COC(=O)c1ccc(O)c(NC(=O)COc2ccc(C34CC5CC(CC(C5)C3)C4)cc2)c1` [CAY10585], in the assay on K-RasG12V nanoclustering, the “K-RasG12V nanoclustering-FRET” value is “selectively decreased”. In addition, the “H-RasG12V nanoclustering-FRET” value in the assay with H-RasG12V nanoclustering was “not H-RasG12V nanoclustering-FRET”. Moreover, the Gal3 levels result in the assay on Gal3 is listed as “decreased the Gal3 levels”.

For `C=CCNC1=C2C[C@@H](C)C[C@H](OC)[C@H](O)[C@@H](C)/C=C(\C)[C@H](OC(N)=O)[C@@H](OC)/C=C\C=C(/C)C(=O)NC(=CC1=O)C2=O` [17-AAG, 17-allylamino-17-demethoxy-geldanamycin, reference compound], the “normalized RLU” value at Hsp90/Cdc37 [1] (RLU normalized to DMSO (=1.00)) is listed as 0.91. In addition, the “Average RLU” value on Hsp90/Cdc37 [1] (average of 3 wells (DMSO 248028)) came to 225640 RLU. In the assay on Hsp90/Cdc37 [2] (DMSO = 1.00), the “normalized RLU (FIMM Screening-1)” value turned out to be 0.89 and the “normalized RLU (FIMM Screening-2, scaffold based)” value is recorded as 0.89. In the assay on Hsp90/Cdc37 [2] (mean of 3 wells, DMSO 50019), the “Average RLU (FIMM Screening-1)” value is 44367 RLU. Besides, the “Average RLU (FIMM Screening-2, scaffold based)” value with Hsp90/Cdc37 [2] (mean of 3 wells, DMSO 51006) is 45379 RLU. For the same compound, the “competition with FITC-geldanamycin (ATP-pocket binding, polarization signal)” value at Hsp90α (N-terminal) was “significantly reduced the signal”. For the same compound, the “K-RasG12V nanoclustering-FRET” value with K-RasG12V nanoclustering is “same selectivity”. For the same compound, in the assay on MDA-MB-231 cells, the IC50 is 1000 nM. Moreover, the “induction of Hsp90 or Hsp70 expression (heat shock response)” value with Hsp90, Hsp70 was “increase in Hsp90 and, in particular, Hsp70”. Besides, in the assay with HIF-1α, the “nuclear levels of HIF-1α” value was “decreased the nuclear levels of HIF-1α”.
